This is an account of results in ChEMBL document CHEMBL5303573, “Mapping human microbiome drug metabolism by gut bacteria and their genes” (Nature, 2019).

The conditions of data set [1]: bacteroides thetaiotaomicron, 12 h, 2 µM.
Description: The drug is tested on Bacteroides thetaiotaomicron strain: 3731 for biotransformation. The drug concentrations were measured before and after a 12-h incubation by liquid-chromatography-coupled mass spectrometry (LC–MS)
A short description of data set [2]: The drug is tested on Bacteroides xylanisolvens strain: DSM18836 for biotransformation. The drug concentrations were measured before and after a 12-h incubation by liquid-chromatography-coupled mass spectrometry (LC–MS). To be noted: 2 µM.
Data set [3] is described as follows: The drug is tested on Anaerotruncus colihominis strain: DSM17241 for biotransformation. The drug concentrations were measured before and after a 12-h incubation by liquid-chromatography-coupled mass spectrometry (LC–MS). To be noted: 2 µM.
Data set [4] can be described thus: The drug is tested on Bacteroides pectinophilus strain: ATCC43243 for biotransformation. The drug concentrations were measured before and after a 12-h incubation by liquid-chromatography-coupled mass spectrometry (LC–MS). To be noted: 2 µM.
For data set [5] the following is noted: bacteroides thetaiotaomicron, 12 h, 2 µM. The source holds these as a separate data set.
Description: The drug is tested on Bacteroides thetaiotaomicron strain: 7330 for biotransformation. The drug concentrations were measured before and after a 12-h incubation by liquid-chromatography-coupled mass spectrometry (LC–MS)
The conditions of data set [6]: bacteroides eggerthii, 12 h, 2 µM.
Description: The drug is tested on Bacteroides eggerthii strain: DSM20697 for biotransformation. The drug concentrations were measured before and after a 12-h incubation by liquid-chromatography-coupled mass spectrometry (LC–MS)
Data set [7] in a line: The drug is tested on Clostridium asparagiforme strain: DSM15981 for biotransformation. The drug concentrations were measured before and after a 12-h incubation by liquid-chromatography-coupled mass spectrometry (LC–MS). The format is ADME. Further details: dose 2 uM, timepoint 0 vs 12 hours. The conditions noted are these: enterocloster asparagiformis, 2 µM.
The conditions of data set [8]: bacteroides intestinalis, 12 h, 2 µM.
Description: The drug is tested on Bacteroides intestinalis strain: DSM17393 for biotransformation. The drug concentrations were measured before and after a 12-h incubation by liquid-chromatography-coupled mass spectrometry (LC–MS)
Data set [9] can be described thus: The drug is tested on Ruminococcus lactaris strain: ATCC29176 for biotransformation. The drug concentrations were measured before and after a 12-h incubation by liquid-chromatography-coupled mass spectrometry (LC–MS). The conditions noted are these: 2 µM.
The conditions of data set [10]: bacteroides thetaiotaomicron, 12 h, 2 µM. The source holds these as a separate data set.
Description: The drug is tested on Bacteroides thetaiotaomicron strain: VPI-5482 for biotransformation. The drug concentrations were measured before and after a 12-h incubation by liquid-chromatography-coupled mass spectrometry (LC–MS)
The conditions of data set [11]: bacteroides stercoris, 12 h, 2 µM.
Description: The drug is tested on Bacteroides stercoris strain: ATCC43183 for biotransformation. The drug concentrations were measured before and after a 12-h incubation by liquid-chromatography-coupled mass spectrometry (LC–MS)
The conditions of data set [12]: bacteroides fragilis, 12 h, 2 µM.
Description: The drug is tested on Bacteroides fragilis strain: NCTC 9343 for biotransformation. The drug concentrations were measured before and after a 12-h incubation by liquid-chromatography-coupled mass spectrometry (LC–MS)
For data set [13] the following is noted: parabacteroides johnsonii, 12 h, 2 µM.
Description: The drug is tested on Parabacteroides johnsonii strain: DSM18315 for biotransformation. The drug concentrations were measured before and after a 12-h incubation by liquid-chromatography-coupled mass spectrometry (LC–MS)
The nature of data set [14]: The drug is tested on Clostridium scindens strain: ATCC35704 for biotransformation. The drug concentrations were measured before and after a 12-h incubation by liquid-chromatography-coupled mass spectrometry (LC–MS). The conditions noted are these: 2 µM.
Data set [15] in a line: The drug is tested on Bacteroides vulgatus strain: ATCC8482 for biotransformation. The drug concentrations were measured before and after a 12-h incubation by liquid-chromatography-coupled mass spectrometry (LC–MS). To be noted: phocaeicola vulgatus, 2 µM.
Data set [16] in a line: The drug is tested on Collinsella intestinalis strain: DSM13280 for biotransformation. The drug concentrations were measured before and after a 12-h incubation by liquid-chromatography-coupled mass spectrometry (LC–MS). The conditions noted are these: 2 µM.
For data set [17] the following is noted: bacteroides fragilis, 12 h, 2 µM. This is another data set of the same source.
Description: The drug is tested on Bacteroides fragilis strain: DS-208 for biotransformation. The drug concentrations were measured before and after a 12-h incubation by liquid-chromatography-coupled mass spectrometry (LC–MS)
A short description of data set [18]: The drug is tested on Parabacteroides merdae strain: ATCC43184 for biotransformation. The drug concentrations were measured before and after a 12-h incubation by liquid-chromatography-coupled mass spectrometry (LC–MS). The conditions noted are these: 2 µM.
Data set [19] is described as follows: The drug is tested on Bifidobacterium longum subsp. Infantis strain: CCUG52486 for biotransformation. The drug concentrations were measured before and after a 12-h incubation by liquid-chromatography-coupled mass spectrometry (LC–MS). To be noted: 2 µM.

For the molecule `CCN(CC)C(C)CN1c2ccccc2Sc2ccccc21` (stereo not drawn) [ETHOPROPAZINE], the “Bacterial Biotransformation” value was “Compound NOT metabolized” in [1]; “Compound metabolized” in data set [2]; “Compound NOT metabolized” in data set [3]; “Compound metabolized” in [4]; “Compound metabolized” in [5]; “Compound NOT metabolized” in data set [6]. Also, the “Bacterial Biotransformation” value in [7] is reported as “Compound NOT metabolized”; in [8] it was “Compound metabolized”; in [9], “Compound NOT metabolized”; in [10], “Compound metabolized”; in data set [11], “Compound NOT metabolized”; in data set [12] it was “Compound NOT metabolized”. Besides, the “Bacterial Biotransformation” value in data set [13] is “Compound metabolized”; in [14], “Compound NOT metabolized”; in data set [15], “Compound metabolized”; in data set [16], “Compound NOT metabolized”; in data set [17], “Compound NOT metabolized”.

On to `CN(C)CCOC(C)(c1ccccc1)c1ccccn1.O=C(O)CCC(=O)O` (stereo not drawn) [DOXYLAMINE SUCCINATE], for which the “Bacterial Biotransformation” value in data set [1], in [2], in data set [18], in data set [3], in data set [4] and in data set [5] was “Compound NOT metabolized” throughout. Further, the “Bacterial Biotransformation” value in [6], in data set [7], in [8], in data set [9], in data set [10] and in data set [11] was “Compound NOT metabolized” each time. In addition, the “Bacterial Biotransformation” value in [12], in data set [19], in [14], in data set [15], in data set [16] and in data set [17] was “Compound NOT metabolized” each time.

For the molecule `OC(Cn1cncn1)(Cn1cncn1)c1ccc(F)cc1F` [FLUCONAZOLE], the “Bacterial Biotransformation” value in [2] is “Compound metabolized”; in data set [18] it was “Compound NOT metabolized”; in data set [3] it was “Compound metabolized”; in data set [4] it was “Compound NOT metabolized”; in data set [5], “Compound metabolized”; in data set [7], “Compound NOT metabolized”. For the same molecule, the “Bacterial Biotransformation” value in data set [9] is “Compound NOT metabolized”; in data set [10] it was “Compound metabolized”; in data set [11], “Compound metabolized”; in data set [12], “Compound metabolized”; in [13] it was “Compound metabolized”; in data set [19], “Compound NOT metabolized”. Moreover, the entries for the “Bacterial Biotransformation” value in data set [14] and in data set [16] were “Compound metabolized” and “Compound NOT metabolized”, respectively.

For `CC(=O)CCCCn1c(=O)c2c(ncn2C)n(C)c1=O` [PENTOXIFYLLINE], the “Bacterial Biotransformation” value in data set [1], in data set [2], in data set [18], in [3], in data set [5] and in [6] was “Compound NOT metabolized” throughout. Further, the “Bacterial Biotransformation” value in data set [7], in data set [8], in [9], in [10], in [11] and in [12] was “Compound NOT metabolized” each time. Further, the “Bacterial Biotransformation” value in data set [13], in data set [19], in [16] and in data set [17] was “Compound NOT metabolized” in each case.

As to `CN(C(=O)CN(CCO)CC(=O)N(C)C(C)(C)Cc1ccccc1)C(C)(C)Cc1ccccc1` [OXETHAZAINE], the “Bacterial Biotransformation” value in [1], in data set [18], in data set [3], in [5], in data set [6] and in data set [7] was “Compound NOT metabolized” throughout. In addition, the “Bacterial Biotransformation” value in data set [9], in data set [10], in data set [11], in data set [13], in [19] and in data set [14] was “Compound NOT metabolized” in each case. For the same molecule, the “Bacterial Biotransformation” value in [15] and in [16] was “Compound NOT metabolized” throughout.

`CCCN1C[C@H](CSC)C[C@@H]2c3cccc4[nH]cc(c34)C[C@H]21.CS(=O)(=O)O` [PERGOLIDE MESYLATE]: the “Bacterial Biotransformation” value in data set [1], in [2], in [18], in [3], in [4] and in data set [5] was “Compound NOT metabolized” in each case. The “Bacterial Biotransformation” value in [6], in data set [7], in data set [8], in data set [10], in [11] and in data set [12] was “Compound NOT metabolized” in each case. Besides, the “Bacterial Biotransformation” value in [13], in [19], in [14], in data set [15], in data set [16] and in data set [17] was “Compound NOT metabolized” each time.

Turning to `COc1ccc([C@@H]2Sc3ccccc3N(CCN(C)C)C(=O)[C@@H]2OC(C)=O)cc1` [DILTIAZEM], the “Bacterial Biotransformation” value in data set [1] is “Compound metabolized”; in data set [2] it was “Compound metabolized”; in [18] it was “Compound metabolized”; in data set [3] it was “Compound NOT metabolized”; in data set [4], “Compound NOT metabolized”; in [5], “Compound metabolized”. The “Bacterial Biotransformation” value in [6] is “Compound NOT metabolized”; in data set [7], “Compound NOT metabolized”; in data set [8], “Compound metabolized”; in data set [9], “Compound metabolized”; in [10] it was “Compound metabolized”; in [12] it was “Compound metabolized”. For the same molecule, the “Bacterial Biotransformation” value in [13] is “Compound metabolized”; in data set [19], “Compound metabolized”; in data set [14], “Compound NOT metabolized”; in data set [15], “Compound metabolized”; in data set [16] it was “Compound NOT metabolized”; in [17] it was “Compound NOT metabolized”.

As to `CC(=O)O[C@]1(C(C)=O)CC[C@H]2[C@@H]3C=C(C)C4=CC(=O)CC[C@]4(C)[C@H]3CC[C@@]21C` [MEGESTROL ACETATE], the “Bacterial Biotransformation” value in [1] is listed as “Compound metabolized”; in data set [2], “Compound metabolized”; in data set [18], “Compound metabolized”; in [3], “Compound NOT metabolized”; in data set [4] it was “Compound NOT metabolized”; in data set [5], “Compound metabolized”. The “Bacterial Biotransformation” value in data set [6] is on record as “Compound metabolized”; in [7] it was “Compound NOT metabolized”; in data set [8], “Compound metabolized”; in data set [9], “Compound NOT metabolized”; in [11] it was “Compound metabolized”; in [12], “Compound metabolized”. For the same molecule, the “Bacterial Biotransformation” value in data set [13] is recorded as “Compound metabolized”; in data set [19] it was “Compound NOT metabolized”; in [14], “Compound metabolized”; in data set [15], “Compound metabolized”; in [16], “Compound NOT metabolized”; in [17], “Compound metabolized”.
